Measurements reported in patent US6979686B1, “Substituted pyrazoles as p38 kinase inhibitors” (Pharmacia Corporation, priority 2001, dated 2005).
Read-outs that look alike come from different tables or passages of the source.

Tests used:
[1] = test system: TNF-α, U937 human histiocytic lymphoma cell line; assay: LPS stimulation of TNF production by U937 cells; type: cell-based; settings: for U937 Cell % inhib @ conc. (uM) / U937 Cell % inhib @ conc.: @ 1.0 uM; for inhibition at 10 µM: U-937, @ 10.0 uM; for inhibition at 10 µM / inhibition at 1 µM: read-out: U937 Cell % inhib @ conc.; for inhibition at 1 µM: U-937, @ 1.0 uM
Method: Maintenance and Differentiation of the U937 Human Histiocytic Lymphoma Cell Line:
Fifty million cells in 100 ml media were induced to terminal monocytic differentiation by 24 hour incubation with 20 ng/ml phorbol 12-myristate 13-acetate (Sigma). The cells were washed by centrifugation (200×g for 5 min) and resuspended in 100 ml fresh medium. After 24-48 hours, the cells were harvested, centrifuged, and resuspended in culture medium at 2 million cells/ml.
LPS Stimulation of TNF Production by U937 Cells:
Compounds were prepared as 10 mM stock solutions in DMSO and diluted in culture medium to yield a final DMSO concentration of 0.1% in the cell assay. LPS (E coli, 100 ng/ml final concentration) was then added at a volume of 0.02 ml. After 4 hour incubation at 37° C., the amount of TNF-α released in the culture medium was quantitated by ELISA. Inhibitory potency is expressed as IC50 (μM).
In vitro whole cell assay for measuring the ability of the compounds to inhibit TNF production in human U937 cells stimulated with LPS are shown in the column identified as: • “U937 Cell IC50, uM or % inhib @ conc., (uM)”

human p38 kinase alpha = biological target: T1, human p38 kinase alpha (Homo sapiens, UniProt Q16539); assay: p38 kinase in vitro assay, phosphorylation of biotinylated PHAS-I with 32P-ATP; type: biochemical; settings: for inhibition at 1 µM: read-out: P38 alpha kinase % inhib @ conc.
T1 construct: GST (N, cleaved yes); made in house; host or cells: E. coli DH10B
T1 sequence (Q16539 whole entry): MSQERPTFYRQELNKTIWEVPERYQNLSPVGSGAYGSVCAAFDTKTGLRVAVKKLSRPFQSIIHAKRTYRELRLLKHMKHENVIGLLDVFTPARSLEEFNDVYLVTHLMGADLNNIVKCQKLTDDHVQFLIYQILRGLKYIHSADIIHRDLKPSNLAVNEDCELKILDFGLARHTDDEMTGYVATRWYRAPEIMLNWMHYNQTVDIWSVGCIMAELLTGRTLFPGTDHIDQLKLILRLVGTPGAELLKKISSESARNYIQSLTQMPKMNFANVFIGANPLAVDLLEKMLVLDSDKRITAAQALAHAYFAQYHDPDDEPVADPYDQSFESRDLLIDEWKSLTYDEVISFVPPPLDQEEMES

[2] = TNF production, U937 cells stimulated with LPS
[3] = Table 5, LPS-stimulated U937 cells, TNF-α, read-out: U937 Cell Assay IC50
[4] = activated human p38 kinase alpha, PHAS-I substrate, 50 μM unlabeled ATP, read-out: p38 kinase IC50
[5] = Homo sapiens, TNF production, U937 cells stimulated with LPS
[6] = Homo sapiens, U-937, TNF production, human U937 cells stimulated with LPS, read-out: U937 Cell IC50
[7] = TNF production, human U937 cells stimulated with LPS, read-out: U937 Cell IC50
[8] = TNF production in human U937 cells stimulated with LPS
[9] = in vitro P38-alpha kinase inhibition, read-out: P38 alpha kinase IC50

Cc1c(-c2ccncc2)c(-c2ccc(F)cc2)nn1CC(=O)N1CCCCC1CC1CCCN1C (mixture of isomers) [Example B-2388]
U937 Cell IC50, uM or % inhib @ conc. (uM): % inhib ([1]; @ 10.0 uM, TNF production, U937 cells stimulated with LPS): 24.0% @ | P38 alpha kinase IC50, uM or % inhib @ conc. (uM): % inhib (human p38 kinase alpha; @ 10.0 uM): 42.0% @

O=C(NCCc1[nH]nc(-c2ccc(F)cc2)c1-c1ccncc1)NC1CC1c1ccccc1 (racemic) [Example B-0941]
U937 Cell % inhib @ conc. (uM) [1, 2]: 25.0% @ | P38 alpha kinase % inhib @ conc. (uM) (human p38 kinase alpha; @ 1.0 uM): 81.0% @

O=C(NCc1[nH]nc(-c2ccc(F)cc2)c1-c1ccncc1)[C@@H]1CCCN1 [B0194]
U937 Cell % inhib @ conc. [1, 2]: 22% @ | IC50 (human p38 kinase alpha; in vitro P38-alpha kinase, read-out: P38 alpha kinase IC50): 1.31 µM

Cc1ccc(-c2n[nH]c(C)c2-c2ccncc2)c(C)c1 [Example A-31]
IC50 [1, 3]: 1.05 µM

Cc1[nH]nc(-c2ccc(N(C)C)cc2)c1-c1ccncc1 [Example A-37]
IC50 [1, 3]: 0.099 µM

Cc1n[nH]c(-c2ccc(Br)cc2)c1-c1ccncc1 [Example A-39]
IC50 [1, 3]: 0.244 µM | IC50 (human p38 kinase alpha; [4]): 1.1 µM

COc1cccc(-c2n[nH]c(C)c2-c2ccncc2)c1 [Example A-44]
IC50 [1, 3]: 0.477 µM | IC50 (human p38 kinase alpha; [4]): < 0.1 µM

Cc1[nH]nc(-c2ccc(F)c(F)c2)c1-c1ccncc1 [Example A-46]
IC50 [1, 3]: 0.329 µM | IC50 (human p38 kinase alpha; [4]): < 0.1 µM

CCOc1ccc(-c2n[nH]c(C)c2-c2ccncc2)cc1 [Example A-47]
IC50 [1, 3]: 2.36 µM | IC50 (human p38 kinase alpha; [4]): 3.2 µM

Cc1[nH]nc(-c2ccc(C(F)(F)F)cc2)c1-c1ccncc1 [Example A-48]
IC50 [1, 3]: 0.522 µM | IC50 (human p38 kinase alpha; [4]): 1.8 µM

Cc1[nH]nc(-c2cccc(Cl)c2)c1-c1ccncc1 [Example A-51]
IC50 [1, 3]: 0.074 µM | IC50 (human p38 kinase alpha; [4]): < 0.1 µM

O=C(NCc1[nH]nc(-c2ccc(F)cc2)c1-c1ccncc1)[C@@H]1C[C@@H]1c1ccccc1 [Example B-0002]
inhibition at 10 µM [1, 5]: 28% | inhibition at 1 µM (human p38 kinase alpha; @ 1.0 uM): 71%

O=C(NCc1[nH]nc(-c2ccc(F)cc2)c1-c1ccncc1)c1ccccc1I [Example B-0005]
IC50 [1, 6]: 2.97 µM | inhibition at 1 µM (human p38 kinase alpha; @ 1.0 uM): 95%

O=C(NCc1[nH]nc(-c2ccc(F)cc2)c1-c1ccncc1)c1ccccc1C(F)(F)F [Example B-0016]
IC50 [1, 6]: 3.98 µM | inhibition at 1 µM (human p38 kinase alpha; @ 1.0 uM): 94%

O=C(NCc1[nH]nc(-c2ccc(F)cc2)c1-c1ccncc1)c1c(Cl)cc(Cl)cc1Cl [Example B-0019]
inhibition at 10 µM [1, 5]: 100% | inhibition at 1 µM (human p38 kinase alpha; @ 1.0 uM): 84%

O=C(NCc1[nH]nc(-c2ccc(F)cc2)c1-c1ccncc1)c1ccc(F)c(F)c1F [Example B-0026]
IC50 [1, 6]: 3.27 µM | inhibition at 1 µM (human p38 kinase alpha; @ 1.0 uM): 96%

CC(C)=CC(=O)NCc1[nH]nc(-c2ccc(F)cc2)c1-c1ccncc1 [Example B-0027]
IC50 [1, 6]: 11 µM | inhibition at 1 µM (human p38 kinase alpha; @ 1.0 uM): 94%

O=C(NCc1[nH]nc(-c2ccc(F)cc2)c1-c1ccncc1)c1ccc([N+](=O)[O-])o1 [Example B-0031]
inhibition at 10 µM [1, 5]: 100% | inhibition at 1 µM (human p38 kinase alpha; @ 1.0 uM): 94%

COc1ccc(CC(=O)NCc2[nH]nc(-c3ccc(F)cc3)c2-c2ccncc2)cc1OC [Example B-0034]
IC50 [1, 6]: 10 µM | inhibition at 1 µM (human p38 kinase alpha; @ 1.0 uM): 95%

COc1ccc(CC(=O)NCc2[nH]nc(-c3ccc(F)cc3)c2-c2ccncc2)cc1 [Example B-0036]
IC50 [1, 6]: 8.24 µM | inhibition at 1 µM (human p38 kinase alpha; @ 1.0 uM): 92%

O=C(NCc1[nH]nc(-c2ccc(F)cc2)c1-c1ccncc1)c1ccc(F)cc1 [Example B-0042]
IC50 [1, 6]: 2.76 µM | inhibition at 1 µM (human p38 kinase alpha; @ 1.0 uM): 94%

O=C(NCc1[nH]nc(-c2ccc(F)cc2)c1-c1ccncc1)c1ccc(F)c(F)c1 [Example B-0045]
IC50 [1, 6]: 1.01 µM | inhibition at 1 µM (human p38 kinase alpha; @ 1.0 uM): 94%

O=C(NCc1[nH]nc(-c2ccc(F)cc2)c1-c1ccncc1)c1ccc(F)cc1C(F)(F)F [Example B-0062]
U937 Cell % inhib @ conc. [1, 2]: 36.0% @

O=C(NCc1[nH]nc(-c2ccc(F)cc2)c1-c1ccncc1)c1cccc(CCl)c1 [Example B-0065]
U937 Cell % inhib @ conc. [1, 2]: 21.0% @ | P38 alpha kinase % inhib @ conc. (human p38 kinase alpha; @ 1.0 uM): 83% @

Cc1cccc(C(=O)NCc2[nH]nc(-c3ccc(F)cc3)c2-c2ccncc2)c1 [Example B-0067]
U937 Cell % inhib @ conc. [1, 2]: 1.0% @

O=[N+]([O-])c1ccc(S(=O)(=O)NCc2[nH]nc(-c3ccc(F)cc3)c2-c2ccncc2)cc1 [Example B-0115]
U937 Cell % inhib @ conc. [1, 2]: 2.0% @ | P38 alpha kinase % inhib @ conc. (human p38 kinase alpha; @ 1.0 uM): 47.0% @

C=Cc1ccc(S(=O)(=O)NCc2[nH]nc(-c3ccc(F)cc3)c2-c2ccncc2)cc1 [Example B-0140]
U937 Cell % inhib @ conc. [1, 2]: 9.0% @ | P38 alpha kinase % inhib @ conc. (human p38 kinase alpha; @ 10.0 uM): 67% @

O=S(=O)(NCc1[nH]nc(-c2ccc(F)cc2)c1-c1ccncc1)c1ccc(OC(F)F)cc1 [Example B-0143]
IC50 [1, 7]: 3.63 µM | P38 alpha kinase % inhib @ conc. (human p38 kinase alpha; @ 1.0 uM): 42.0% @

CCOC(=O)C(CCSC)NC(=O)NCc1[nH]nc(-c2ccc(F)cc2)c1-c1ccncc1 (stereo not drawn) [Example B-0147]
U937 Cell % inhib @ conc. [1, 2]: 22.0% @ | P38 alpha kinase % inhib @ conc. (human p38 kinase alpha; @ 1.0 uM): 44.0% @

CCOC(=O)NC(=O)NCc1[nH]nc(-c2ccc(F)cc2)c1-c1ccncc1 [Example B-0152]
U937 Cell % inhib @ conc. [1, 2]: 24.0% @ | P38 alpha kinase % inhib @ conc. (human p38 kinase alpha; @ 1.0 uM): 51.0% @

O=C(NCc1[nH]nc(-c2ccc(F)cc2)c1-c1ccncc1)Nc1ccccc1F [Example B-0162]
IC50 [1, 7]: 2.05 µM | P38 alpha kinase % inhib @ conc. (human p38 kinase alpha; @ 1.0 uM): 23% @

CC1(C)C2CCC1(CS(=O)(=O)NCc1[nH]nc(-c3ccc(F)cc3)c1-c1ccncc1)C(=O)C2 (stereo not drawn) [Example B-0226]
inhibition at 1 µM [1, 5]: 20%

CC1(C)C2CCC1(CS(=O)(=O)NCc1[nH]nc(-c3ccc(F)cc3)c1-c1ccncc1)C(=O)C2 (stereo not drawn) [Example B-0227]
U937 Cell % inhib @ conc. [1, 2]: 1.0% @

Cc1cccc(C(=O)NCc2[nH]nc(-c3ccc(F)cc3)c2-c2ccncc2)c1 [Example B-0290]
inhibition at 1 µM [1, 5]: 44%

O=C(NCc1[nH]nc(-c2ccc(F)cc2)c1-c1ccncc1)c1cccs1 [Example B-0303]
U937 Cell % inhib @ conc. [1, 2]: 10.0% @

COc1ccc(CC(=O)N[C@H](C)c2[nH]nc(-c3ccc(F)cc3)c2-c2ccncc2)cc1OC [Example B-0371]
inhibition at 1 µM [1, 5]: 28%

C[C@@H](NC(=O)N[C@H](C)c1[nH]nc(-c2ccc(F)cc2)c1-c1ccncc1)c1ccccc1 [Example B-0417]
U937 Cell % inhib @ conc. (uM) [1, 8]: 28.0% @

C[C@@H](NC(=O)[C@H]1CCCN1)c1[nH]nc(-c2ccc(F)cc2)c1-c1ccncc1 [Example B-0428]
U937 Cell % inhib @ conc. (uM) [1, 8]: 27.0% @ | IC50 (human p38 kinase alpha; [9]): 0.99 µM

C[C@@H](NS(=O)(=O)c1ccc2ccccc2c1)c1[nH]nc(-c2ccc(F)cc2)c1-c1ccncc1 [Example B-0475]
U937 Cell % inhib @ conc. (uM) [1, 8]: 74.0% @

CC(NS(=O)(=O)c1cccc2cnccc12)c1[nH]nc(-c2ccc(F)cc2)c1-c1ccncc1 (stereo not drawn) [Example B-0490]
inhibition at 1 µM ([1]; Homo sapiens, TNF production in human U937 cells stimulated with LPS): 74% | IC50 (human p38 kinase alpha; [9]): 0.91 µM

CC(NC(=O)c1ccc(Cl)cc1Cl)c1[nH]nc(-c2ccc(F)cc2)c1-c1ccncc1 (stereo not drawn) [Example B-0693]
U937 Cell % inhib @ conc. (uM) [1, 8]: 28.0% @

O=C(NC(Cc1ccccc1)c1[nH]nc(-c2ccc(F)cc2)c1-c1ccncc1)c1ccncc1 (stereo not drawn) [Example B-0854]
U937 Cell % inhib @ conc. (uM) [1, 2]: 25.0% @

O=C(NC(Cc1ccccc1)c1[nH]nc(-c2ccc(F)cc2)c1-c1ccncc1)c1ccccn1 (stereo not drawn) [Example B-0855]
U937 Cell % inhib @ conc. (uM) [1, 2]: 8.0% @

Cc1ccc(S(=O)(=O)NC(Cc2ccccc2)C(=O)NCCCc2[nH]nc(-c3ccc(F)cc3)c2-c2ccncc2)cc1 (stereo not drawn) [Example B-1188]
U937 Cell % inhib @ conc. (uM) [1, 2]: 36.0% @

O=C(NCCCc1[nH]nc(-c2ccc(F)cc2)c1-c1ccncc1)NCc1ccccn1 [Example B-1304]
inhibition at 1 µM ([1]; Homo sapiens, TNF production, LPS-stimulated U937 cells): 10%

O=C(NCCCc1[nH]nc(-c2ccc(F)cc2)c1-c1ccncc1)NCCc1c[nH]cn1 [Example B-1306]
IC50 [1, 6]: > 1 µM
